Here are results for two compounds from paper PMC7782499, “Progerinin, an optimized progerin-lamin A binding inhibitor, ameliorates premature senescence phenotypes of Hutchinson-Gilford progeria syndrome” (Communications Biology, 2021).

In one test the test system is Lmna G609G/G609G mouse. More on the design: method as in PMID 27617860. The note with it: intraperitoneal injection; cited from earlier work.
Another test deals with Lmna G609G/+ mouse. Briefly: Histology analysis (Masson Trichrome, H&E). Type of test: in vivo. The note with it: Lmna G609G/+ mice, oral 50 mg/kg daily, 8 weeks. As for the experimental part:
Tissue specimens were fixed in 4% PFA and embedded in paraffin. Paraffin blocks were sectioned and transferred onto adhesive-coated slides. After deparaffinization and rehydration, tissue sections were stained with Masson Trichrome. Histology analysis was performed by BioLead Inc. (Seoul, Korea).
Fig. S11. Histological analysis of age- matched Lmna+/+ mice (left), untreated Lamn G609G/+ mice (middle) and progerinin- treated LmnaG609G/+ mice (right, Lmna +/+: n = 4; un tr e at e d Lmna G609G/+: n = 6; pr o ge r in -treated LmnaG609G/+: n=6). A -C. Masson Trichrome staining for fibrosis analysis was performed after 8-week treatment. A. Reduction of fibrosis in heart after administration of progeirnin in L mn a G609G transgenic mice.
The collagen-rich fibrotic area (blue) is widely distributed in untreated LmnaG609G/+ mi c e compared to Lmna+/+ and progerin- treated LmnaG609G/+ mi c e. B. Fibrosis in liver of Lmna G609G transgenic mice was reduced by progerinin. C. Unt r eat ed LmnaG609G/+ mi c e show a relatively loose connection between blood vessel walls and tissues in lungs. D -E. Hematoxylin and Eosin (H&E) staining was performed to compare skin and bones of Lmna +/+ and LmnaG609G mice. Conditions of foot pad skin (D), vertebra (E), and femur (F) of Lmna +/+ and progerin-treated LmnaG609G/+ mice were better than those of untreated Lmna G609G/+ mice. […]

Consider `CC1(C)Oc2cc3oc(=O)ccc3cc2CC1OC(=O)C=Cc1cccnc1` (stereo not drawn) [JH4], for which, in the test with Lmna G609G/G609G mouse, the “Extension of life span” value is recorded as ~ 4 weeks and the “Increase of life span” value is listed as ~ 25%.

Take `CC1(C)Oc2cc3oc(=O)ccc3cc2C[C@@H]1OC/C=C/c1ccccc1` [SLC-D011]: in the test with Lmna G609G/+ mouse, the “Fibrosis in heart and liver (Masson Trichrome)” value is listed as “reduced”.
